From PubChem BioAssay (NCI)
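GI50: concentration for 50% inhibition of growth. The concentration for full growth arrest is given as TGI.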

How the values were obtained:
Assay in all cases: NCI-60 cell line screen, 384-well format
[1] = tested on: T-47D breast
[2] = tested on: MDA-MB-468 breast
[3] = tested on: OVCAR-3 ovarian
[4] = tested on: SF-539 CNS
[5] = tested on: LOX IMVI melanoma
[6] = tested on: NCI-H23 lung
[7] = tested on: PC-3 prostate
[8] = tested on: HOP-92 NSCLC
[9] = tested on: MDA-MB-435 melanoma
[10] = tested on: UACC-257 melanoma
[11] = tested on: DU-145 prostate
[12] = tested on: HOP-62 NSCLC
[13] = tested on: U251 glioblastoma
[14] = tested on: TK-10 renal
[15] = tested on: SF-295 CNS
[16] = tested on: HS 578T breast
[17] = tested on: HL-60(TB) leukemia
[18] = tested on: HCC-2998 colon
[19] = tested on: OVCAR-4 ovarian
[20] = tested on: IGROV1 ovarian
[21] = tested on: MALME-3M melanoma
[22] = tested on: BT-549 breast
[23] = tested on: OVCAR-5 ovarian
[24] = tested on: SK-MEL-5 melanoma
[25] = tested on: KM12 colon
[26] = tested on: A549 NSCLC
[27] = tested on: HCT-15 colon
[28] = tested on: SW-620 colon
[29] = tested on: SK-MEL-28 melanoma
[30] = tested on: CCRF-CEM leukemia
[31] = tested on: NCI-H460 NSCLC
[32] = tested on: 786-0 renal
[33] = tested on: M14 melanoma
[34] = tested on: OVCAR-8 ovarian
[35] = tested on: RPMI-8226 leukemia
[36] = tested on: NCI-H226 lung
[37] = tested on: CAKI-1 renal
[38] = tested on: SK-OV-3 ovarian
[39] = tested on: MCF7 breast
[40] = tested on: K-562 leukemia
[41] = tested on: MOLT-4 leukemia
[42] = tested on: NCI-H522 lung
[43] = tested on: ACHN renal
[44] = tested on: UO-31 renal
[45] = tested on: UACC-62 melanoma
[46] = tested on: EKVX NSCLC
[47] = tested on: SN12C renal
[48] = tested on: SNB-19 CNS
[49] = tested on: A498 renal
[50] = tested on: HT29 colon
[51] = tested on: HCT-116 colon
[52] = tested on: NCI-H322M lung
[53] = tested on: SNB-75 CNS
[54] = tested on: SF-268 CNS
[55] = tested on: NCI/ADR-RES ovarian

With `CC[C@@H](C)Nc1cc(C(=O)NC2CC3CCC(C2)N3c2ccc(C(=O)C3CC3)cn2)c(C)cc1C(N)=O` (some centres undefined) the GI50 [1] was 12.2 nM, the TGI [1] was 52.8 nM and the GI50 [2] was 17.9 nM. It also gave a TGI [2] of 42.8 nM, a GI50 [3] of 24.5 nM and a TGI [3] of 84.1 nM. The GI50 [4] was 20 nM, the TGI [4] was 51.1 nM and the GI50 [5] was 16.6 nM. The TGI [5] was 31.7 nM, the GI50 [6] was 17.6 nM and the TGI [6] was 53.6 nM. For the same compound, the GI50 [7] was 28.3 nM, the TGI [7] was 85.9 nM and the GI50 [8] was 28.5 nM. For the same compound, the TGI [8] was 70.8 nM, the GI50 [9] was 62.6 nM and the TGI [9] was 23300 nM. For the same compound, the GI50 [10] was 62.1 nM, the TGI [10] was 25100 nM and the GI50 [11] was 23.8 nM. It also gave a TGI [11] of 732 nM, a GI50 [12] of 29.5 nM and a TGI [12] of 13700 nM. It also gave a GI50 [13] of 23.2 nM, a TGI [13] of 65.6 nM and a GI50 [14] of 42 nM. The TGI [14] was 32800 nM, the GI50 [15] was 24.2 nM and the TGI [15] was 65.3 nM. The GI50 [16] was 40.3 nM, the TGI [16] was 236 nM and the GI50 [17] was 12.6 nM. For the same compound, the TGI [17] was 26.3 nM, the GI50 [18] was < 10 nM and the TGI [18] was 39.6 nM. The GI50 [19] was 6750 nM, the TGI [19] was 23500 nM and the GI50 [20] was 13 nM. For the same compound, the TGI [20] was 85.9 nM, the GI50 [21] was 19.9 nM and the TGI [21] was 78.5 nM. For the same compound, the GI50 [22] was 12.5 nM, the GI50 [23] was 39.9 nM and the TGI [23] was 30800 nM. The GI50 [24] was 19.7 nM, the TGI [24] was 10600 nM and the GI50 [25] was 19.9 nM. The TGI [25] was 1620 nM, the GI50 [26] was < 10 nM and the TGI [26] was 11700 nM. The GI50 [27] was 36.1 nM, the TGI [27] was 15000 nM and the GI50 [28] was 26.2 nM. The TGI [28] was 78.8 nM, the GI50 [29] was 43.7 nM and the TGI [29] was 21600 nM. The GI50 [30] was < 10 nM, the TGI [30] was 37 nM and the GI50 [31] was < 10 nM. The TGI [31] was 24.3 nM, the GI50 [32] was 33.2 nM and the TGI [32] was 11700 nM. It also gave a GI50 [33] of 31 nM, a TGI [33] of 12800 nM and a GI50 [34] of 20.6 nM. The TGI [34] was 44.6 nM, the GI50 [35] was 25.1 nM and the TGI [35] was 85.6 nM. For the same compound, the GI50 [36] was 30.3 nM, the TGI [36] was 171 nM and the GI50 [37] was 46.2 nM. For the same compound, the TGI [37] was 19200 nM, the GI50 [38] was 24.9 nM and the TGI [38] was 15000 nM. The GI50 [39] was < 10 nM, the TGI [39] was 237 nM and the GI50 [40] was 19.9 nM. For the same compound, the TGI [40] was 205 nM, the GI50 [41] was < 10 nM and the TGI [41] was 17.6 nM. The GI50 [42] was 19.4 nM, the TGI [42] was 46.3 nM and the GI50 [43] was 45 nM. It also gave a TGI [43] of 28400 nM, a GI50 [44] of 42.8 nM and a TGI [44] of 67700 nM. It also gave a GI50 [45] of 26.4 nM, a TGI [45] of 81.1 nM and a GI50 [46] of 36.7 nM. The TGI [46] was 17700 nM, the GI50 [47] was 24.8 nM and the TGI [47] was 76.6 nM. It also gave a GI50 [48] of 41.6 nM, a TGI [48] of 17300 nM and a GI50 [49] of 23.3 nM. For the same compound, the TGI [49] was 17600 nM, the GI50 [50] was < 10 nM and the TGI [50] was 11500 nM. The GI50 [51] was 36.8 nM, the TGI [51] was 14900 nM and the GI50 [52] was 27.5 nM. The TGI [52] was 19100 nM, the GI50 [53] was 82.4 nM and the TGI [53] was 464 nM. It also gave a GI50 [54] of 11 nM, a TGI [54] of 36.3 nM and a GI50 [55] of 277 nM. For the same compound, the TGI [55] was 782 nM.
